Source: patent publication US20150217046A1, “DOSING REGIMENS FOR SUBCUTANEOUSLY INFUSIBLE ACIDIC COMPOSITIONS” (SynAgile Corporation, priority 2012, published 2015)

Key:
[1] = Infusion site reactions, intermittent subcutaneous infusion of 100 and 200 mg/mL LDEE pH 3.7 (Example 4); conditions: for infusion site reactions, doses pooled: 14 days post-infusion
From the text: Each infusion site was spaced a minimum of 2 inches (5 cm) apart from any other infusion site.

[2] = Rate of hydrolysis of LD esters in solution; type: physicochemical
Protocol: At a particular temperature and pH, the LDEs formed of LD and of different alcohols are hydrolyzed prior to their infusion at different rates. […] The rate of hydrolysis of LDE salts also depends on the anion, i.e., on the acid forming the LDE salt. LDE is hydrolyzed more rapidly when carboxylate anions and/or carboxylic acids replace the chloride anion or HCl. The rate of hydrolysis of the salt formed of LDEE and acetic acid can be about 3 times faster at about pH 4.5 at about 23° C. than that of LDEE.HCl, the salt formed of LDEE and HCl. The rate of hydrolysis at a particular pH and temperature can therefore depend on the buffering agent, e.g., citric acid and/or citrate anions, becoming faster when their concentration is elevated. Typically, the concentration of the buffering ions, i.e., the combined concentrations of citrates and citric acid, is between about 5 mM and 100 mM, for example between about 10 mM and 50 mM. The rate of hydrolysis can increase, for example, when the buffering citric acid-citrate concentration is increased.
In aqueous LDE salt pharmaceutical compositions, the hydrolysis rates generally decrease as the pH decreases, and the shelf life of the LDE salt consequently increases, unless the pH is about 1.7±0.5 or less. […] In acidic pharmaceutical compositions the amines of the LDEs are protonated, making the LDEs cations. […] The rates of hydrolysis generally increase with temperature, and may at least about double or about triple for each 10° C. increase, correspondingly decreasing upon cooling.

## CCOC(=O)[C@@H](N)Cc1ccc(O)c(O)c1 [LDEE, levodopa ethyl ester]
[1]; 100 mg/mL LDEE pH 3.7
  infusion site reactions, doses pooled: 0 out of 16
[1]; 200 mg/mL LDEE pH 3.7
  infusion site reactions, doses pooled: 5 out of 16
[1]; LDEE pH 3.7, volumes between 0.094 and 0.37 mL per hour per site
  tolerability of infused volume per site: well tolerated
[1]; pH 3.7, intermittent s.c. (35 min non-delivery), 100 mg/mL, 563 mg, 16 hrs, 0 hrs
  # of Infusion Site Reactions/# of Infusion Sites: 0/4
[1]; pH 3.7, intermittent s.c. (35 min non-delivery), 100 mg/mL, 563 mg, 16 hrs, 12 hrs
  # of Infusion Site Reactions/# of Infusion Sites: 0/4
[1]; pH 3.7, intermittent s.c. (35 min non-delivery), 100 mg/mL, 563 mg, 16 hrs, 24 hrs
  # of Infusion Site Reactions/# of Infusion Sites: 2/4
[1]; pH 3.7, intermittent s.c. (35 min non-delivery), 100 mg/mL, 563 mg, 16 hrs, 3 days
  # of Infusion Site Reactions/# of Infusion Sites: 3/4
[1]; pH 3.7, intermittent s.c. (35 min non-delivery), 100 mg/mL, 563 mg, 16 hrs, 7 days
  # of Infusion Site Reactions/# of Infusion Sites: 3/4
[1]; pH 3.7, intermittent s.c. (35 min non-delivery), 100 mg/mL, 563 mg, 16 hrs, 14 days
  # of Infusion Site Reactions/# of Infusion Sites: 0/4
[1]; pH 3.7, intermittent s.c., 100 mg/mL, 140 mg, 8 hrs, 0 hrs
  # of Infusion Site Reactions/# of Infusion Sites: 0/8
[1]; pH 3.7, intermittent s.c., 100 mg/mL, 140 mg, 8 hrs, 12 hrs
  # of Infusion Site Reactions/# of Infusion Sites: 0/8
[1]; pH 3.7, intermittent s.c., 100 mg/mL, 140 mg, 8 hrs, 24 hrs
  # of Infusion Site Reactions/# of Infusion Sites: 0/8
[1]; pH 3.7, intermittent s.c., 100 mg/mL, 140 mg, 8 hrs, 3 days
  # of Infusion Site Reactions/# of Infusion Sites: 3/8
[1]; pH 3.7, intermittent s.c., 100 mg/mL, 140 mg, 8 hrs, 7 days
  # of Infusion Site Reactions/# of Infusion Sites: 1/8
[1]; pH 3.7, intermittent s.c., 100 mg/mL, 140 mg, 8 hrs, 14 days
  # of Infusion Site Reactions/# of Infusion Sites: 0/8
[1]; pH 3.7, intermittent s.c., 100 mg/mL, 282 mg, 16 hrs, 0 hrs
  # of Infusion Site Reactions/# of Infusion Sites: 0/4
[1]; pH 3.7, intermittent s.c., 100 mg/mL, 282 mg, 16 hrs, 12 hrs
  # of Infusion Site Reactions/# of Infusion Sites: 0/4
[1]; pH 3.7, intermittent s.c., 100 mg/mL, 282 mg, 16 hrs, 24 hrs
  # of Infusion Site Reactions/# of Infusion Sites: 1/4
[1]; pH 3.7, intermittent s.c., 100 mg/mL, 282 mg, 16 hrs, 3 days
  # of Infusion Site Reactions/# of Infusion Sites: 1/4
[1]; pH 3.7, intermittent s.c., 100 mg/mL, 282 mg, 16 hrs, 7 days
  # of Infusion Site Reactions/# of Infusion Sites: 0/4
[1]; pH 3.7, intermittent s.c., 100 mg/mL, 282 mg, 16 hrs, 14 days
  # of Infusion Site Reactions/# of Infusion Sites: 0/4
[1]; pH 3.7, intermittent s.c., 200 mg/mL, 140 mg, 8 hrs, 0 hrs
  # of Infusion Site Reactions/# of Infusion Sites: 0/8
[1]; pH 3.7, intermittent s.c., 200 mg/mL, 140 mg, 8 hrs, 12 hrs
  # of Infusion Site Reactions/# of Infusion Sites: 0/8
[1]; pH 3.7, intermittent s.c., 200 mg/mL, 140 mg, 8 hrs, 24 hrs
  # of Infusion Site Reactions/# of Infusion Sites: 0/8
[1]; pH 3.7, intermittent s.c., 200 mg/mL, 140 mg, 8 hrs, 3 days
  # of Infusion Site Reactions/# of Infusion Sites: 3/8
[1]; pH 3.7, intermittent s.c., 200 mg/mL, 140 mg, 8 hrs, 7 days
  # of Infusion Site Reactions/# of Infusion Sites: 3/8
[1]; pH 3.7, intermittent s.c., 200 mg/mL, 140 mg, 8 hrs, 14 days
  # of Infusion Site Reactions/# of Infusion Sites: 2/8
[1]; pH 3.7, intermittent s.c., 200 mg/mL, 282 mg, 16 hrs, 0 hrs
  # of Infusion Site Reactions/# of Infusion Sites: 0/4
[1]; pH 3.7, intermittent s.c., 200 mg/mL, 282 mg, 16 hrs, 12 hrs
  # of Infusion Site Reactions/# of Infusion Sites: 0/4
[1]; pH 3.7, intermittent s.c., 200 mg/mL, 282 mg, 16 hrs, 24 hrs
  # of Infusion Site Reactions/# of Infusion Sites: 0/4
[1]; pH 3.7, intermittent s.c., 200 mg/mL, 282 mg, 16 hrs, 3 days
  # of Infusion Site Reactions/# of Infusion Sites: 2/4
[1]; pH 3.7, intermittent s.c., 200 mg/mL, 282 mg, 16 hrs, 7 days
  # of Infusion Site Reactions/# of Infusion Sites: 2/4
[1]; pH 3.7, intermittent s.c., 200 mg/mL, 282 mg, 16 hrs, 14 days
  # of Infusion Site Reactions/# of Infusion Sites: 1/4
[1]; pH 3.7, intermittent s.c., 200 mg/mL, 563 mg, 16 hrs, 0 hrs
  # of Infusion Site Reactions/# of Infusion Sites: 0/4
[1]; pH 3.7, intermittent s.c., 200 mg/mL, 563 mg, 16 hrs, 12 hrs
  # of Infusion Site Reactions/# of Infusion Sites: 0/4
[1]; pH 3.7, intermittent s.c., 200 mg/mL, 563 mg, 16 hrs, 24 hrs
  # of Infusion Site Reactions/# of Infusion Sites: 0/4
[1]; pH 3.7, intermittent s.c., 200 mg/mL, 563 mg, 16 hrs, 3 days
  # of Infusion Site Reactions/# of Infusion Sites: 3/4
[1]; pH 3.7, intermittent s.c., 200 mg/mL, 563 mg, 16 hrs, 7 days
  # of Infusion Site Reactions/# of Infusion Sites: 3/4
[1]; pH 3.7, intermittent s.c., 200 mg/mL, 563 mg, 16 hrs, 14 days
  # of Infusion Site Reactions/# of Infusion Sites: 2/4
[2]; near pH 7, about 37° C.
  rate of hydrolysis relative to LDME: about four times faster
[2]; neutral pH
  time to hydrolysis: within hours or less
